The source made the active and inactive calls. The rule behind the calls is not given here.
Experiments:
[1] = test system: SF-268; experiment: Antiproliferative activity against SF268 cell line at 10 uM; type: functional; conditions: Homo sapiens
[2] = (§1) Antiproliferative activity against 251L cell line at 10 uM; type: functional; conditions: Homo sapiens; values are per cent of control
[3] = test system: NCI-H460; experiment: Antiproliferative activity against H460 cell line at 10 uM; type: functional; conditions: Homo sapiens
[4] = test system: MCF7; experiment: Antiproliferative activity against MCF7 cell line at 10 uM; type: functional; conditions: Homo sapiens
[5] = (§2) Antiproliferative activity against MDA231 cell line at 10 uM; type: functional; conditions: Homo sapiens, MDA-MB-231; values are per cent of control
[6] = (§3) Antiproliferative activity against MDA467 cell line at 10 uM; type: functional; conditions: Homo sapiens; values are per cent of control
[7] = (§4) Antiproliferative activity against 394NL cell line at 10 uM; type: functional; conditions: Homo sapiens; values are per cent of control
[8] = test system: OVCAR-3; experiment: Antiproliferative activity against OVCAR-3 cell line at 10 uM; type: functional; conditions: Homo sapiens
[9] = test system: DU-145; experiment: Antiproliferative activity against DU145 cell line at 10 uM; type: functional; conditions: Homo sapiens
[10] = test system: LNCaP; experiment: Antiproliferative activity against LNCAP cell line at 10 uM; type: functional; conditions: Homo sapiens
[11] = test system: A498; experiment: Antiproliferative activity against A498 cell line at 10 uM; type: functional; conditions: Homo sapiens
[12] = (§5) Antiproliferative activity against 1138L cell line at 10 uM; type: functional; conditions: Homo sapiens; values are per cent of control
[13] = test system: HUVEC; experiment: Growth inhibition in HUVEC; type: functional, cell-based; conditions: Homo sapiens
[14] = Antiproliferative activity against NCI60 cell line; type: functional, cell-based; conditions: Homo sapiens
[15] = test system: HUVEC; experiment: Inhibition of HUVEC tubule formation assessed as number of branches at 75 pM; type: functional, Homo sapiens
[16] = test system: HUVEC; experiment: Inhibition of HUVEC tubule formation assessed as number of branches at 25 pM; type: functional, Homo sapiens
[17] = test system: HUVEC; experiment: Inhibition of HUVEC tubule formation assessed as length of branches at 75 pM; type: functional, Homo sapiens
[18] = test system: HUVEC; experiment: Inhibition of HUVEC tubule formation assessed as length of branches at 25 pM; type: functional, Homo sapiens
[19] = test system: HUVEC; experiment: Inhibition of HUVEC tubule formation assessed as number of branches at 10 nM; type: functional, Homo sapiens
[20] = test system: HUVEC; experiment: Inhibition of HUVEC tubule formation assessed as number of branches at 100 nM; type: functional, Homo sapiens
[21] = test system: HUVEC; experiment: Inhibition of HUVEC tubule formation assessed as length of branches at 10 nM; type: functional, Homo sapiens
[22] = test system: HUVEC; experiment: Inhibition of HUVEC tubule formation assessed as length of branches at 100 nM; type: functional, Homo sapiens
[23] = organism: Homo sapiens; experiment: as §1; type: functional
[24] = test system: MDA-MB-231; experiment: as §2; type: functional; conditions: Homo sapiens
[25] = organism: Homo sapiens; experiment: as §3; type: functional
[26] = organism: Homo sapiens; experiment: as §4; type: functional
[27] = organism: Homo sapiens; experiment: as §5; type: functional
[28] = Maximum tolerated dose in iv dosed nude mouse; type: ADME, organism-based; conditions: in vivo
[29] = test system: HUVEC; experiment: Inhibition of HUVEC tubule formation assessed as number of branches at 0.75 pM; type: functional, Homo sapiens
[30] = test system: HUVEC; experiment: Inhibition of HUVEC tubule formation assessed as number of branches at 0.25 pM; type: functional, Homo sapiens
[31] = test system: HUVEC; experiment: Inhibition of HUVEC tubule formation assessed as length of branches at 0.75 pM; type: functional, Homo sapiens
[32] = test system: HUVEC; experiment: Inhibition of HUVEC tubule formation assessed as length of branches at 0.25 pM; type: functional, Homo sapiens
[33] = test system: SF-268; experiment: Antiproliferative activity against SF268 cell line at 3 uM; type: functional; conditions: Homo sapiens
[34] = Antiproliferative activity against 251L cell line at 3 uM; type: functional; conditions: Homo sapiens
[35] = test system: NCI-H460; experiment: Antiproliferative activity against H460 cell line at 3 uM; type: functional; conditions: Homo sapiens
[36] = test system: MCF7; experiment: Antiproliferative activity against MCF7 cell line at 3 uM; type: functional; conditions: Homo sapiens
[37] = Antiproliferative activity against MDA231 cell line at 3 uM; type: functional; conditions: Homo sapiens, MDA-MB-231
[38] = Antiproliferative activity against MDA467 cell line at 3 uM; type: functional; conditions: Homo sapiens
[39] = Antiproliferative activity against 394NL cell line at 3 uM; type: functional; conditions: Homo sapiens
[40] = test system: OVCAR-3; experiment: Antiproliferative activity against OVCAR-3 cell line at 3 uM; type: functional; conditions: Homo sapiens
[41] = test system: DU-145; experiment: Antiproliferative activity against DU145 cell line at 3 uM; type: functional; conditions: Homo sapiens
[42] = test system: LNCaP; experiment: Antiproliferative activity against LNCAP cell line at 3 uM; type: functional; conditions: Homo sapiens
[43] = test system: A498; experiment: Antiproliferative activity against A498 cell line at 3 uM; type: functional; conditions: Homo sapiens
[44] = Antiproliferative activity against 1138L cell line at 3 uM; type: functional; conditions: Homo sapiens

C[C@@H]1C[C@H](C)C[C@H](C)[C@@H](O)CC(=O)O[C@H](C[C@H](C)C(=O)O)C/C=C/C=C(/C#N)[C@H](O)[C@@H](C)C1
inhibition at 10 µM [1]: 57%
growth, % of control at 10 µM [2]: 81%
inhibition at 10 µM [3]: 84%
inhibition at 10 µM [4]: 76%
growth, % of control at 10 µM [5]: 90%
growth, % of control at 10 µM [6]: 62%
growth, % of control at 10 µM [7]: 67%
inhibition at 10 µM [8]: 91%
inhibition at 10 µM [9]: 74%
inhibition at 10 µM [10]: 92%
inhibition at 10 µM [11]: 78%
growth, % of control at 10 µM [12]: 56%

C[C@@H]1C[C@H](C)C[C@H](C)[C@@H](O)CC(=O)O[C@H]([C@H](C)[C@H](C)C(=O)O)C/C=C/C=C(/C#N)[C@H](O)[C@@H](C)C1
inhibition at 10 µM [1]: 3%
growth, % of control at 10 µM [2]: 12%
inhibition at 10 µM [3]: 3%
inhibition at 10 µM [4]: 9%
growth, % of control at 10 µM [5]: 7%
growth, % of control at 10 µM [6]: 7%
growth, % of control at 10 µM [7]: 4%
inhibition at 10 µM [8]: 6%
inhibition at 10 µM [9]: 7%
inhibition at 10 µM [10]: 7%
inhibition at 10 µM [11]: 9%
growth, % of control at 10 µM [12]: 3%
IC50 [13]: 1 nM
IC50 [14]: 70 nM
Activity [15]: 246
Activity [16]: 116
Activity [17]: 63
Activity [18]: 62

CS[C@H](C[C@@H]1C/C=C/C=C(/C#N)[C@H](O)[C@@H](C)C[C@H](C)C[C@H](C)C[C@H](C)[C@@H](O)CC(=O)O1)C(=O)O
inhibition at 10 µM [1]: 54%
growth, % of control at 10 µM [2]: 67%
inhibition at 10 µM [3]: 79%
inhibition at 10 µM [4]: 48%
growth, % of control at 10 µM [5]: 81%
growth, % of control at 10 µM [6]: 59%
growth, % of control at 10 µM [7]: 64%
inhibition at 10 µM [8]: 102%
inhibition at 10 µM [9]: 75%
inhibition at 10 µM [10]: 59%
inhibition at 10 µM [11]: 68%
growth, % of control at 10 µM [12]: 42%

C[C@@H]1C[C@H](C)C[C@H](C)[C@@H](O)CC(=O)O[C@H]([C@@H]2CCC[C@H]2C(=O)O)C/C=C/C=C(/C#N)[C@H](O)[C@@H](C)C1 [BORRELIDIN]
inhibition at 10 µM [1]: 3%
growth, % of control at 10 µM [2]: 8%
inhibition at 10 µM [3]: 4%
inhibition at 10 µM [4]: 13%
growth, % of control at 10 µM [5]: 12%
growth, % of control at 10 µM [6]: 6%
growth, % of control at 10 µM [7]: 2%
inhibition at 10 µM [8]: 11%
inhibition at 10 µM [9]: 5%
inhibition at 10 µM [10]: 7%
inhibition at 10 µM [11]: 8%
growth, % of control at 10 µM [12]: 2%
IC50 [13]: 0.5 nM
IC50 [14]: 20 nM
Activity [19]: 230
Activity [20]: 233
Activity [21]: 64
Activity [22]: 65

C[C@@H]1C[C@H](C)C[C@H](C)[C@@H](O)CC(=O)O[C@H](C[C@@H](C)C(=O)O)C/C=C/C=C(/C#N)[C@H](O)[C@@H](C)C1
inhibition at 10 µM [1]: 14%
growth, % of control at 10 µM [2]: 32%
inhibition at 10 µM [3]: 49%
inhibition at 10 µM [4]: 16%
growth, % of control at 10 µM [5]: 26%
growth, % of control at 10 µM [6]: 25%
growth, % of control at 10 µM [7]: 9%
inhibition at 10 µM [8]: 29%
inhibition at 10 µM [9]: 68%
inhibition at 10 µM [10]: 34%
inhibition at 10 µM [11]: 30%
growth, % of control at 10 µM [12]: 6%

C/C1=C/C=C/C[C@@H]([C@@H]2CCC[C@H]2C(=O)O)OC(=O)C[C@H](O)[C@@H](C)C[C@@H](C)C[C@@H](C)C[C@H](C)[C@H]1O
Activity [1]: inactive
Activity [23]: inactive
Activity [3]: inactive
Activity [4]: inactive
Activity [24]: inactive
Activity [25]: inactive
Activity [26]: inactive
Activity [8]: inactive
Activity [9]: inactive
Activity [10]: inactive
Activity [11]: inactive
Activity [27]: inactive
Activity [13]: inactive

C[C@@H]1C[C@H](C)C[C@H](C)[C@@H](O)CC(=O)O[C@H]([C@H](C)CC(=O)O)C/C=C/C=C(/C#N)[C@H](O)[C@@H](C)C1
inhibition at 10 µM [1]: 13%
growth, % of control at 10 µM [2]: 26%
inhibition at 10 µM [3]: 38%
inhibition at 10 µM [4]: 12%
growth, % of control at 10 µM [5]: 20%
growth, % of control at 10 µM [6]: 15%
growth, % of control at 10 µM [7]: 9%
inhibition at 10 µM [8]: 32%
inhibition at 10 µM [9]: 55%
inhibition at 10 µM [10]: 24%
inhibition at 10 µM [11]: 21%
growth, % of control at 10 µM [12]: 5%

C[C@@H]1C[C@H](C)C[C@H](C)[C@@H](O)CC(=O)O[C@H]([C@@H]2CC[C@H]2C(=O)O)C/C=C/C=C(/C#N)[C@H](O)[C@@H](C)C1
inhibition at 10 µM [1]: 4%
growth, % of control at 10 µM [2]: 9%
inhibition at 10 µM [3]: 7%
inhibition at 10 µM [4]: 9%
growth, % of control at 10 µM [5]: 8%
growth, % of control at 10 µM [6]: 6%
growth, % of control at 10 µM [7]: 3%
inhibition at 10 µM [8]: 16%
inhibition at 10 µM [9]: 16%
inhibition at 10 µM [10]: 9%
inhibition at 10 µM [11]: 9%
growth, % of control at 10 µM [12]: 3%
IC50 [13]: 500 nM
IC50 [14]: 300 nM
MTD [28]: > 130 mg/kg
Activity [29]: 40
Activity [30]: 38
Activity [31]: 63
Activity [32]: 65

COc1cccc2c1C(=O)c1c(O)c3c(c(O)c1C2=O)C[C@@](O)(C(=O)CO)C[C@@H]3O[C@H]1C[C@H](N)[C@H](O)[C@H](C)O1 [DOXORUBICIN]
inhibition at 3 µM [33]: 9%
inhibition at 3 µM [34]: 15%
inhibition at 3 µM [35]: 3%
inhibition at 3 µM [36]: 12%
inhibition at 3 µM [37]: 11%
inhibition at 3 µM [38]: 7%
inhibition at 3 µM [39]: 6%
inhibition at 3 µM [40]: 10%
inhibition at 3 µM [41]: 5%
inhibition at 3 µM [42]: 10%
inhibition at 3 µM [43]: 11%
inhibition at 3 µM [44]: 6%

Reference: ChEMBL document CHEMBL1139729, “Separation of anti-angiogenic and cytotoxic activities of borrelidin by modification at the C17 side chain” (Bioorg Med Chem Lett, 2006)
